Results reported in US20130040951A9, “PROPHYLACTIC OR THERAPEUTIC AGENT FOR CANCER” (Takeda Pharmaceutical Company Limited, priority 2009, published 2013).

Columns and labels:
[1] = target: T1, fusion protein containing GAL4-DNA-binding domain and ERR full-length (Homo sapiens, UniProt P11474); assay: Reporter assay system using 293T cells (GAL4-ERR luciferase, inverse agonist activity); assay type: cell-based; details: HEK-293T; compound final concentration 3 μM, 1 day; luciferase activity in 293T cells; no compound = 0%, 10 μM XCT-790 = 100%; read-out: inhibition rate (%) at 3 μM
T1 construct: expressed in transfected cells; host or cells: 293T cells
T1 sequence (P11474 1-423): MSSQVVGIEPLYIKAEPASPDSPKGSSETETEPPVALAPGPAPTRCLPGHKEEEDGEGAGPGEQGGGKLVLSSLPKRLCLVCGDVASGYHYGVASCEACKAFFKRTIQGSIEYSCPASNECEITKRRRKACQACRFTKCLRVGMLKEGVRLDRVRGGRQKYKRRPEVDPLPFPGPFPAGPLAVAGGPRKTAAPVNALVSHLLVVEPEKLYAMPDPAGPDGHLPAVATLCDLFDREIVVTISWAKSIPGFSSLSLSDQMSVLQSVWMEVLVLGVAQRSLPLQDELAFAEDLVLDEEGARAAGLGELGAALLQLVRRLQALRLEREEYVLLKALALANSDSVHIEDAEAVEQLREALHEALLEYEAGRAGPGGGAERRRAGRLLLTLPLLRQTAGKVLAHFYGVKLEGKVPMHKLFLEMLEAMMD
Method: Compound Evaluation in Reporter Assay System Using 293T Cells
293T cells were seeded in a 150 cm^2 flask by 6,000,000 cells, and cultured in a medium (DMEM medium containing 10% inactivated Fetal Bovine Serum sterile filtered (FBS), 50 μg/ml Gentamicin, 10 mM HEPES buffer (pH 7.4)) at 37° C. in the presence of 5% CO2 for 1 day.
Then, vector DNA having a gene encoding a fusion protein containing GAL4-DNA-binding domain and ERR full-length and a vector DNA wherein luciferase gene is fused at the downstream of GAL4-binding sequence were cotransfected by a lipofection method, and the cells were cultured at 37° C. in the presence of 5% CO2 for 1 day. The cells were recovered, sown in a 384 well plate by 15,000 cells, and cultured at 37° C. in the presence of 5% CO2 for 3 hr. Furthermore, 50 μM XCT-790 (final concentration 10 μM) or 15 μM compound (final concentration 3 μM) was added, and the cells were cultured at 37° C. in the presence of 5% CO2 for 1 day. The luciferase activity was measured by using a multiplate reader Envision (Perkin Elmer Inc.). The inverse agonist activity of the compound was calculated in percentage with the luciferase activity inhibited by no addition of compound as 0%, and with addition of final concentration 10 μM of XCT-790 (N-[5-(trifluoromethyl)-1,3,4-thiadiazol-2-yl]-2-cyano-3-[3-methoxy-4-[2,4-di(trifluoromethyl)benzyloxy]phenyl]propenamide) as 100%.

[2] = target: T2, GST-ERRα ligand-binding domain (Homo sapiens, UniProt P11474); assay: HTRF assay system using ERRα ligand-binding domain (biotinylated SRC-1 (676-700) peptide); assay type: biochemical; details: compound final concentration 3 μM, room temperature 2 hr; 615/665 ratio value; no compound = 0%, 10 μM XCT-790 = 100%; read-out: inhibition rate (%) at 3 μM
T2 sequence (P11474 193-421 limits assumed): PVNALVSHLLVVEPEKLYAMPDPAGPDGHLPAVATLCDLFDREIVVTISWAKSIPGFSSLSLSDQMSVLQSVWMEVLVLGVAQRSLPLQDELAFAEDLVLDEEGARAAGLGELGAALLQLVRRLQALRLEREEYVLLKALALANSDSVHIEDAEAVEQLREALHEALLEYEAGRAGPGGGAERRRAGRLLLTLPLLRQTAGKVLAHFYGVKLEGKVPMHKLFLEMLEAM
Method: Compound Evaluation in HTRF Assay System Using ERRα Ligand-Binding Domain
An assay buffer (25 mM HEPES, 100 mM NaCl, 1 mM DTT, 0.1% BSA) containing 5 nM GST-ERRα ligand-binding domain (final concentration 1.25 nM) was added to a 384 well plate, then […] XCT-790 (final concentration 10 μM), or 12 μM compound (final concentration 3 μM) was added. Furthermore, an assay buffer containing XL665 conjugated Streptavidine, Eu^3+criptate conjugated GST antibody and 200 nM biotinylated SRC-1 (676-700) (final concentration 100 nM) was added, and the mixture was reacted at room temperature for 2 hr. Using Multiplate reader Envision (Perkin Elmer Inc.), after excitation at 320 nm, fluorescence values at 615 nm and 665 nm were measured. The inverse agonist activity of the compound was calculated in percentage with the 615/665 ratio value inhibited by no addition of compound as 0%, and with addition of final concentration 10 μM of XCT-790 (N-[5-(trifluoromethyl)-1,3,4-thiadiazol-2-yl]-2-cyano-3-[3-methoxy-4-[2,4-di(trifluoromethyl)benzyloxy]phenyl]propenamide) as 100%.

[3] = tested on: ES-2 ovarian cancer cells; assay: Cell proliferation inhibitory test (CCK-8); assay type: cell-based; details: compound final concentration 10 μM, 72 hr; CCK-8 absorbance at 450 nm; DMSO alone = 0%, cell-free well with medium only = 100%; read-out: inhibition rate (%) at 10 μM
Method: Cell Proliferation Inhibitory Test
ES-2 ovarian cancer cells were seeded in a 96 well plate at 1×10^3 cells/well, and incubated at 37° C. in the presence of 5% CO2 for 24 hr. Then, the compound was added at a final concentration of 10 μM, and the cells were cultured at 37° C. in the presence of 5% CO2 for 72 hr. For activity measurement of viable cells, a CCK-8 reagent (Cell Counting Kit-8, DOJINDO) was added, the cells were incubated at 37° C. for 1.5 hr, and the absorbance at 450 nm was measured by a microplate reader. Assuming the dehydrogenase activity in the DMSO alone addition group as 0%, and that in a cell-free well containing only a medium as 100%, the dehydrogenase activity of the compound addition group was calculated in percentage.

Structure (SMILES)	inhibition at 3 µM [1] [%]	inhibition at 3 µM [2] [%]	inhibition at 10 µM [3] [%]
CCN(CC)CCNC1=NC(=O)S/C1=C\c1ccc(Oc2ccc(C(F)(F)F)cc2Cl)c(OC)c1 [Example 94, (5Z)-5-({4-[2-chloro-4-(trifluoromethyl)phenoxy]-3-methoxyphenyl}methylidene)-4-{[2-(diethylamino)ethyl]amino}-1,3-thiazol-2(5H)-one]	90	107	100
CCN1C(=N)/C(=C/c2ccc(Oc3ccc(C#N)cc3C(F)(F)F)c(OC)c2)NC1=O [Example 25, 4-{4-[(Z)-(1-ethyl-5-imino-2-oxoimidazolidin-4-ylidene)methyl]-2-methoxyphenoxy}-3-(trifluoromethyl)benzonitrile]	89	98	61
CCN1C(=N)/C(=C/c2ccc(OCc3ccc(C(F)(F)F)cc3C(F)(F)F)c(OC)c2)N(C)C1=O [Example 32, (4Z)-4-[(4-{[2,4-bis(trifluoromethyl)benzyl]oxy}-3-methoxyphenyl)methylidene]-1-ethyl-5-imino-3-methylimidazolidin-2-one]	91	103	98
COc1cc(/C=C2\SC(=O)N=C2NCCC2CCCN2C)ccc1Oc1ccc(C#N)cc1C(F)(F)F (stereo not drawn) [Example 93, 4-(2-methoxy-4-{(Z)-[4-{[2-(1-methylpyrrolidin-2-yl)ethyl]amino}-2-oxo-1,3-thiazol-5(2H)-ylidene]methyl}phenoxy)-3-(trifluoromethyl)benzonitrile]	88	105	101

Continued, in another order:

inhibition at 3 µM [1] [%]	inhibition at 3 µM [2] [%]	Structure (SMILES)	inhibition at 10 µM [3] [%]
87	114	COc1cc(/C=C2\SC(=O)N=C2NCCC2CCCN2C)ccc1Oc1ccc(C#N)c2ccccc12 (stereo not drawn) [Example 96, 4-(2-methoxy-4-{(Z)-[4-{[2-(1-methylpyrrolidin-2-yl)ethyl]amino}-2-oxo-1,3-thiazol-5(2H)-ylidene]methyl}phenoxy)naphthalene-1-carbonitrile]	102
95	93	CCN1C(=N)/C(=C/c2ccc(Oc3ccc(C#N)cc3C(F)(F)F)c(OC)c2)N(C)C1=O [Example 145, 4-{4-[(Z)-(1-ethyl-5-imino-3-methyl-2-oxoimidazolidin-4-ylidene)methyl]-2-methoxyphenoxy}-3-(trifluoromethyl)benzonitrile]	98
94	92	CCN1C(=N)/C(=C\c2ccc(Oc3ccc(C#N)cc3C(F)(F)F)c(OC)c2)N(C)C1=O [Example 143, 4-{4-[(E)-(1-ethyl-5-imino-3-methyl-2-oxoimidazolidin-4-ylidene)methyl]-2-methoxyphenoxy}-3-(trifluoromethyl)benzonitrile]	88
93	105	COc1cc(/C=C2\SC(=O)N=C2NCC(C)(C)O)ccc1Oc1ccc(C#N)cc1C(F)(F)F [Example 116, 4-{4-[(Z)-{4-[(2-hydroxy-2-methylpropyl)amino]-2-oxo-1,3-thiazol-5(2H)-ylidene}methyl]-2-methoxyphenoxy}-3-(trifluoromethyl)benzonitrile]	101
